SMILES strings stand for the structures. Where only a bound is given, the exact number is not on record here.

For one test, the system named is Non-transformed hybrids. Put plainly: Field tolerance to quizalofop and 2,4-D: non-transformed hybrids. The format is in vivo, corn. Particulars: for % Injury 3 WAA (0-100 scale): 140 g ae/ha. The text has this: Two field trials were established at field stations in Hawaii and Indiana. […] The hybrid Hi-II×5XH571 is of the same parentage as the AAD1 (v3) event lines. The hybrid Croplan 585SR is a sethoxydim resistant line.
The experimental design was a split-plot with four replications. The main plot was herbicide treatment and the sub-plot was AAD1 (v3) event or comparison hybrid. Plots were one row by 3.7 meters with approximately twenty-five seeds planted in each row. For AAD1 events, seeds from a different lineage within the event were planted in each replicate.
Glufosinate at 560 g ai/ha was applied to AAD1 (v3) plots at the V2 stage to eliminate non-transformed plants. […] Treatments were applied using backpack broadcast boom equipment delivering 187 L/ha carrier volume at 130-200 kpa pressure.
Quizalofop treated plots were visually assessed for crop injury at one and three weeks after application (WAA) using a 0-100% scale, where 0 equals no injury and 100 equals complete death.

For test [1], the system named is non-transformed (NT) and seed-derived (WT) creeping bentgrass. Put plainly: Quizalofop-p-ethyl postemergence on non-transformed / seed-derived creeping bentgrass controls. The format is in vivo, Agrostis stolonifera L. var. palustris. The method, then:
Selected T0 plants were sprayed with quizalofop-p-ethyl (Assure II®, DUPONT, Wilmington, Del.) at rates ranging from 60 to 2,240 g ae/ha. […] This rate also controls susceptible monocot weed species. Measured amounts were placed individually in 25 mL glass vials and dissolved in a 4 mL volume of 1.0% (v/v) Agri-Dex® Crop Oil Concentrate (COC) from HELENA CHEMICAL (Collierville, Tenn.). Application solutions were prepared by serial dilution of the highest rate applied. One-half the volume of the highest rate stock solution (2 mL) was transferred to a clean 25 mL vial containing an equal volume of 1% COC and the diluted solution was mixed. Additional dilutions were prepared similarly by removing one-half the volume of the previous concentration (2 mL), and adding to an equal volume of 1% COC and mixing. When preparing the lowest concentration, the remaining one-half volume was discarded. All 2 mL stock solutions were further diluted by adding 10 mL aqueous mixture of 1.0% (v/v) COC, so that the final spray solutions were 12 mL in volume and contained 1.0% (v/v) COC.
Spray solutions were applied to the plant material with an overhead Mandel™ track sprayer equipped with a 8002E nozzles calibrated to deliver 187 L/ha over an application area of 0.503 square meters (m^2) at a spray height of 18 inches (46 cm) above average plant canopy height. Control plants were sprayed in the same manner with the COC blank.
The treated plants and control plants were placed in a greenhouse, and watered by sub-irrigation to prevent wash-off of the test compounds. At various times after application, the condition of the test plants as compared with that of the untreated plants was determined visually and scored on a scale of 0 to 100 percent (where 0 corresponds to no injury or growth inhibition and 100 corresponds to complete kill). Regenerated, non-transformed (NT) ‘Crenshaw’ or elite line 2905-2 creeping bentgrass plants and/or seed-derived clonally propagated plants served as quizalofop sensitive controls.

Test [2] deals with Kentucky bluegrass cv Shamrock callus. The test is described as follows: Callus selection conditions with quizalofop and haloxyfop: Kentucky bluegrass. The test is classed as cell-based. The method, then: Selection conditions for creeping bentgrass cv Crenshaw and Kentucky bluegrass cv Shamrock were established using the grass-active herbicides, quizalofop and haloxyfop. Concentrations of quizalofop and haloxyfop ranged from 0 to 300 nM dissolved in defined callus maintenance media for each species. Callus tissue, derived from mature seeds of each species or cultivar, was used in the experiment. In the case of creeping bentgrass cv Crenshaw, calli maintained on CBG-3 medium were transferred to plates of CBG-3 medium containing either haloxyfop or quizalofop at 0, 50, 100, 150, 200, 250, and 300 nM final concentrations. Visual observations (growth of callus and development of necrosis) were made over a period of 1.5 months. For Kentucky bluegrass cv Shamrock and experimental line A98, calli maintained on KBG-2 were transferred to plates of KBG-2 medium containing 0, 50, 100, 150, 200, 250, and 300 nM final concentrations of the herbicides. Visual observations of callus growth and necrosis were made over a 2.5 month period. […] The calli became necrotic at lower concentrations of quizalofop relative to haloxyfop and the response was more rapid. […]

Regarding `O=C(O)COc1ccc(Cl)cc1Cl` [2,4-D, 2,4-dichlorophenoxyacetic acid], in the test with Non-transformed hybrids (1120 g ae/ha, 2 DAA), the “epinastic leaning in non-transformed hybrids” value is listed as 11-33%. In the test on Non-transformed hybrids (1120 g ae/ha, non-transformed hybrids, 3-4 WAA), the “brace root deformation rating (0-10 scale)” value is 9.

On to `CCOC(=O)[C@@H](C)Oc1ccc(Oc2cnc3cc(Cl)ccc3n2)cc1` [quizalofop-p-ethyl], for which the “Visual Injury 39 DAA” value in test [1] (240 g ae/ha, regenerated non-transformed control NT1) came to 95%. Besides, in test [1] (both rates (120 and 480 g ae/ha)), the “injury on non-transformed controls” value is recorded as ≥ 80%. For the same molecule, the “Mean % Injury (SE)” value in test [1] (non-transformed control NT1, 120 g ae/ha, 11 DAA) was 83 (3) %; in test [1] (non-transformed control NT1, 120 g ae/ha, 14 DAA), 88 (3) %; in test [1] (non-transformed control NT1, 120 g ae/ha, 20 DAA) it was 90 (0) %; in test [1] (non-transformed control NT1, 480 g ae/ha, 11 DAA), 85 (0) %; in test [1] (non-transformed control NT1, 480 g ae/ha, 14 DAA) it was 90 (0) %; in test [1] (non-transformed control NT1, 480 g ae/ha, 20 DAA) it was 97 (2) %. Also, the “Mean % Injury (SE)” value in test [1] (non-transformed control NT2, 120 g ae/ha, 11 DAA) is 80 (0) %; in test [1] (non-transformed control NT2, 120 g ae/ha, 14 DAA) it was 90 (0) %; in test [1] (non-transformed control NT2, 120 g ae/ha, 20 DAA), 93 (3) %; in test [1] (non-transformed control NT2, 480 g ae/ha, 11 DAA), 90 (0) %; in test [1] (non-transformed control NT2, 480 g ae/ha, 14 DAA) it was 90 (0) %; in test [1] (non-transformed control NT2, 480 g ae/ha, 20 DAA), 97 (2) %. The “GR90 (herbicide rate which produces 90% injury and/or growth inhibition)” value in test [1] (seed grown plants) is reported as “approximately 60 g ae/ha”.

`CC(Oc1ccc(Oc2ncc(C(F)(F)F)cc2Cl)cc1)C(=O)O` (stereo not shown) [haloxyfop]: the “concentration needed to kill all calli” value in test [2] was found to be 300 nM.

On to `C[C@@H](Oc1ccc(Oc2cnc3cc(Cl)ccc3n2)cc1)C(=O)O` [quizalofop], for which the “injury of non-transformed hybrids” value with Non-transformed hybrids (70 g ae/ha, field) is reported as 80-100%. Further, the “% Injury 3 WAA (0-100 scale)” value in the test on Non-transformed hybrids (HI, CROPLAN 585SR) was found to be 96%; in the test with Non-transformed hybrids (HI, DK493), 100%; in the test with Non-transformed hybrids (HI, HI-II X 5XH571), 100%; in the test with Non-transformed hybrids (IN, CROPLAN 585SR), 80%; with Non-transformed hybrids (IN, DK493) it was 100%; in the test on Non-transformed hybrids (IN, HI-II X 5XH571), 100%. Moreover, in test [2], the “concentration needed to kill all calli” value was found to be 200 nM. In addition, the “injury of control, non-transgenic plants” value was “about 70%” in test [1] (60 g ae/ha, 21 to 24 DAA); “about 80% injury to greater than 90% injury” in test [1] (120 and 480 g ae/ha, 11, 14, 20 DAA); ~80% in test [1] (120 g ae/ha, 21 to 24 DAA); ~90% in test [1] (240 g ae/ha, 21 to 24 DAA); ~100% in test [1] (480 g ae/ha, 21 to 24 DAA).

These data come from US10450549B2, “Aryloxyphenoxypropionate tolerance in turfrgass species and use of AAD1 as a selectable marker” (Dow AgroSciences, LLC, priority 2004, dated 2019).
